The source of these data is US20170122958A1, “Enzymes Functional Probes” (University of Dundee, priority 2013, published 2017).

What all share (format): binding
For assay [1], the target named is T1, Brd2(1) Leu110-Ile (Homo sapiens, UniProt P25440, L110I). Nature of the assay: DSF thermal shift. The settings on record: mutant. Also on record: Plasmids of the eight single BET bromodomain constructs Brd2(1), Brd2(2), Brd3(1), Brd3(2); His6 (N); made in house; host or cells: E. coli BL21(DE3).
Assay [2] addresses T2, Brd2(2) Leu383-Ile (Homo sapiens, UniProt P25440, L383I). Nature of the assay: DSF thermal shift. Also on record: Plasmids of the eight single BET bromodomain constructs Brd2(1), Brd2(2), Brd3(1), Brd3(2); His6 (N); made in house; host or cells: E. coli BL21(DE3). The settings on record: mutant.
The target of assay [3] is T1, Brd2(1) Leu110-Ile. Nature of the assay: ITC reverse titration of protein into compound. The arrangement: Plasmids of the eight single BET bromodomain constructs Brd2(1), Brd2(2), Brd3(1), Brd3(2), Brd4(1), Brd4(2), Brdt(1) and Brdt(2); His6 (N); made in house; host or cells: E. coli BL21(DE3). How it is done:
(§1) ITC experiments were carried out on a ITC200 instrument from MicroCal™ Experiments were conducted at 3 different temperatures 15° C., 25° C. and 30° C., while stirring at 1000 rpm. Buffers of proteins, peptide and compounds were matched to 20 mM HEPES pH 7.5 at 25° C. and 100 mM NaCl. Frozen protein was buffer exchanged as described for the DSF experiments. Each titration comprised 1 initial injection of 0.4 μl lasting 0.8 s, followed by 19 injections of 2 μl lasting 4 s each at 2 min intervals. The initial injection was discarded during data analysis. Standard and reverse titrations were conducted depending on the binding partners.
(§2) Reverse titrations were conducted to test the binding of the known ligands and the novel chemical probes to the wild types and the mutants. Experiments were carried out either at 25° C. or 30° C. For strong binders, a concentration of 150-200 μM of the protein was injected into a solution of 15-20 μM compound. […] In cases where the compound was solubilized in dimethyl sulfoxide, DMSO concentration was adjusted to 1% both in the syringe and in the cell.
(§3) All the data was fitted to a single binding site model using the Microcal LLC ITC200 Origin software provided by the manufacturer to yield enthalpies of binding (ΔH) and binding constants (Kas). Further thermodynamic parameters were calculated from these values (changes in entropy ΔS, changes in free energy AG and dissociation constants (Kds)).

In assay [4] the target is T2, Brd2(2) Leu383-Ile. Nature of the assay: ITC reverse titration of protein into compound. The arrangement: Plasmids of the eight single BET bromodomain constructs Brd2(1), Brd2(2), Brd3(1), Brd3(2), Brd4(1), Brd4(2), Brdt(1) and Brdt(2); His6 (N); made in house; host or cells: E. coli BL21(DE3). How it is done:
as §1, §2, §3

SMILES strings stand for the structures.

T1 sequence (P25440 74-180 L110I limits assumed): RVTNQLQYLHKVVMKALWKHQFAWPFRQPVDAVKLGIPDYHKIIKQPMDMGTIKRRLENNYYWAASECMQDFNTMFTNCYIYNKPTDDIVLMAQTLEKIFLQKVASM
T2 sequence (P25440 344-453 L383I limits assumed): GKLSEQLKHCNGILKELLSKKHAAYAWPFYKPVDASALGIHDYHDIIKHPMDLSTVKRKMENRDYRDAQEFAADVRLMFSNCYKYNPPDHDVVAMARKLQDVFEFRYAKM

As a reminder, the Kd is a measure of binding affinity in units of concentration. Higher therefore signals a looser complex. With `COC(=O)[C@H](C)[C@@H]1N=C(c2ccc(Cl)cc2)c2cc(OC)ccc2-n2c(C)nnc21` (racemic) [Compound 7, (+−)-methyl (R)-2-((S)-6-(4-chlorophenyl)-8-methoxy-1-methyl-4H-benzo[f][1,2,4]triazolo[4,3-a][1,4]diazepin-4-yl)propanoate], the “Thermal stabilisation brd2(1)L110I” value at Brd2(1) Leu110-Ile [1] stood at 5.7 ± 0.7 °C; on Brd2(1) Leu110-Ile [1] (listed as compound 7) it was 5.7 °C. Further, at Brd2(1) Leu110-Ile [1], the “ΔTm Brd2(1)*(Leu110-Ile)” value stood at 5.7 ± 0.7 K. Besides, the “Thermal stabilisation brd2(2)V383I (Table 1); Brd2(2) Leu383-Ile (text)” value came out at 9.6 ± 0.1 °C on Brd2(2) Leu383-Ile [2] and 9.6 °C on Brd2(2) Leu383-Ile [2] (listed as compound 7). Moreover, the “ΔTm Brd2(2)*(Leu383-Ile)” value at Brd2(2) Leu383-Ile [2] worked out at 9.6 ± 0.1 K. Further, the values for the Kd on Brd2(1) Leu110-Ile [3] and on Brd2(2) Leu383-Ile [4] were 260 nM and 27 nM, respectively.
